The supplement of paper PMC8976852
± gives the standard deviation of the averaged measurements.

Experiments:
Assay in all cases: activity (1 - area under the dose-response curve within the screened range) (fraction); higher = more sensitive
Conditions in all cases: treatment time: 72 h
[1] = system: HCM-SANG-0266-C20 (colorectal cancer organoid)
Method: (§1)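 Patient-derived cancer organoids (colorectal and oesophageal, HCM-SANG models) were grown for up to 6 months in 5% or 80% ECM (BME-2), then seeded in 384-well plates on an ECM layer and treated with 72 compounds for 3 days. Each compound used a 7-point half-log dilution series spanning a 1000-fold range, in technical triplicate and biological duplicate. Dose-response curves were fitted with a non-linear mixed effects model; fits with RMSE > 0.3 were removed, and activity = 1 - AUC within the screened dose range (0 = no activity, 1 = maximum).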

[2] = system: HCM-SANG-0270-C20 (colorectal cancer organoid)
Method: as §1

[3] = system: HCM-SANG-0291-C15 (oesophageal cancer organoid)
Method: as §1

[4] = system: HCM-SANG-0532-C20 (colorectal cancer organoid)
Method: as §1

[5] = ECM percentage in culture prior to screening 5 %
[6] = ECM percentage in culture prior to screening 80 %

SMILES | activity [1, 5] | activity [1, 6] | activity [2, 5] | activity [2, 6] | activity [3, 5] | activity [3, 6] | activity [4, 5] | activity [4, 6]
CC(C)(C)c1nc(-c2cccc(NS(=O)(=O)c3c(F)cccc3F)c2F)c(-c2ccnc(N)n2)s1 [Dabrafenib] | 0.138 ± 0.084 | 0.0841 ± 0.044 | 0.035 ± 0.012 | 0.0243 ± 0.0073 | 0.0243 ± 0.0054 | 0.0207 ± 0.0019 | 0.0306 ± 0.018 | 0.0604 ± 0.032
CCc1c2c(nc3ccc(OC(=O)N4CCC(N5CCCCC5)CC4)cc13)-c1cc3c(c(=O)n1C2)COC(=O)[C@]3(O)CC [Irinotecan] | 0.0899 ± 0.035 | 0.0683 ± 0.022 | 0.0887 ± 0.063 | 0.079 ± 0.039 | 0.233 ± 0.019 | 0.18 ± 0.015 | 0.1 ± 0.035 | 0.0793 ± 0.037
COc1cc2c(Nc3ccc(NC(=O)c4ccccc4)cc3)ncnc2cc1OCCCN1CCOCC1 | 0.228 ± 0.027 | 0.212 ± 0.038 | 0.102 ± 0.054 | 0.106 ± 0.06 | 0.0708 ± 0.031 | 0.0657 ± 0.034 | 0.184 ± 0.07 | 0.166 ± 0.022
N#CC[C@H](C1CCCC1)n1cc(-c2ncnc3[nH]ccc23)cn1 [Ruxolitinib] | 0.0203 ± 0.00098 | 0.03 ± 0.01 | 0.0225 ± 0.0051 | 0.0229 ± 0.007 | 0.0206 ± 0.0044 | 0.0196 ± 0.0023 | 0.0295 ± 0.011 | 0.0236 ± 0.0026
C[C@@]1(C(=O)Nc2ccc(F)nc2)CCCN1c1nc(Nc2cc(C3CC3)n[nH]2)c2cccn2n1 | 0.455 ± 0.056 | 0.41 ± 0.056 | 0.18 ± 0.086 | 0.22 ± 0.11 | 0.126 ± 0.039 | 0.172 ± 0.056 | 0.279 ± 0.091 | 0.302 ± 0.035
Cn1cc(C2=C(c3ccc(Cl)cc3Cl)C(=O)NC2=O)c2ccccc21 | 0.0916 ± 0.037 | 0.0697 ± 0.056 | 0.0629 ± 0.02 | 0.0482 ± 0.021 | 0.0549 ± 0.019 | 0.0522 ± 0.022 | 0.0778 ± 0.033 | 0.0951 ± 0.05
CC(=O)O[C@@]12CO[C@@H]1C[C@H](O)[C@@]1(C)C(=O)[C@H](O)C3=C(C)[C@@H](OC(=O)[C@H](O)[C@@H](NC(=O)OC(C)(C)C)c4ccccc4)C[C@@](O)([C@@H](OC(=O)c4ccccc4)[C@H]21)C3(C)C [Docetaxel] | 0.237 ± 0.033 | 0.19 ± 0.031 | 0.0873 ± 0.042 | 0.14 ± 0.08 | 0.161 ± 0.058 | 0.188 ± 0.05 | 0.128 ± 0.028 | 0.158 ± 0.017
Cn1nnc2c(C(N)=O)ncn2c1=O [Temozolomide] | 0.0575 ± 0.021 | 0.0651 ± 0.031 | 0.028 ± 0.013 | 0.0261 ± 0.0071 | 0.02 ± 0.0034 | 0.0234 ± 0.0089 | 0.0253 ± 0.0078 | 0.024 ± 0.0046
CN(C)CCCOc1ccc(-c2ccc3ncc4c(c3c2)n(C2CCOCC2)c(=O)n4C)cn1 [AZD0156] | 0.0443 ± 0.024 | 0.0475 ± 0.024 | 0.0254 ± 0.013 | 0.0244 ± 0.0078 | 0.0259 ± 0.013 | 0.0316 ± 0.022 | 0.0433 ± 0.022 | 0.0427 ± 0.017
Nc1ccn([C@@H]2O[C@H](CO)[C@@H](O)C2(F)F)c(=O)n1 [Gemcitabine] | 0.624 ± 0.097 | 0.465 ± 0.13 | 0.337 ± 0.13 | 0.234 ± 0.17 | 0.813 ± 0.021 | 0.801 ± 0.049 | 0.247 ± 0.042 | 0.423 ± 0.04
C#Cc1cccc(Nc2ncnc3cc(OCCOC)c(OCCOC)cc23)c1 [Erlotinib] | 0.171 ± 0.037 | 0.129 ± 0.053 | 0.148 ± 0.1 | 0.121 ± 0.086 | 0.204 ± 0.026 | 0.198 ± 0.033 | 0.207 ± 0.091 | 0.209 ± 0.06
CCC1=C[C@@H]2CN(C1)Cc1c([nH]c3ccccc13)[C@@](C(=O)OC)(c1cc3c(cc1OC)N(C)[C@H]1[C@@](O)(C(=O)OC)[C@H](OC(C)=O)[C@]4(CC)C=CCN5CC[C@]31[C@@H]54)C2 [Vinorelbine] | 0.153 ± 0.031 | 0.153 ± 0.039 | 0.0834 ± 0.05 | 0.095 ± 0.046 | 0.0831 ± 0.009 | 0.107 ± 0.024 | 0.0815 ± 0.04 | 0.107 ± 0.011
